{
  "source": "patent US5276023A",
  "about": "“19-nor-steroid esters” (Roussel Uclaf, priority 1989, dated 1994)",
  "key": {"rat thymocytes": {"test_system": "rat thymocytes", "test": "anti-glucocorticoid activity vis-a-vis dexamethasone: incorporation of uridine in rat thymocytes", "assay_type": "cell-based", "conditions": "for inhibition at 1 µM / inhibition at 0.1 µM / inhibition at 0.01 µM: Rattus norvegicus, Thymocyte, 3 h; for inhibition at 1 µM / inhibition at 0.1 µM / inhibition at 0.01 µM / % of inhibition of the incorporation of uridine: with 5×10^-8 M dexamethasone, 3 hours at 37° C.; for antiglucocorticoid activity: conclusion in words from the thymocyte study", "excerpt": "2) Anti-glucocorticoid activity vis-a-vis dexamethasone\nIncorporation of uridine in rat thymocytes\nGlucocorticoids cause an inhibition of the incorporation of nucleosides in lymphoid tissue and the measurement of the incorporation of radio-active uridine in the thymocytes in the presence of a product under test allow its glucocorticoid activity to be evaluated.\nIt was in accordance with the technique described by Dausse et al (3). The thymus of a suprarenalectomized rat weighing 160 to 180 g was removed, shredded and homogenized slowly using a teflon-flask homogenizer in Hanks solution. The cellular suspension obtained was filtered on gauze and then centrifuged at 800 g×10 mn. A new centrifugation was then carried out at 800 g×10 mn. The deposit was suspended in a nutritive medium (M.E.M. Gibco) and the cellular concentration was adjusted to approximately 20×10^6 cells per ml. Aliquots of 250 ul were then incubated under carbogen for 3 hours at 37° C. with 5×10^-8 M of dexamethasone in the presence or not of increasing concentrations of product (10^-8 M to 10^-6 M). 0.1 uCi of tritiated uridine was then added to each incubate and the incubation was continued for one hour. The incubates were then cooled and 1 ml of a cold solution of trichloracetic acid (TCA) at 5 % weight/volume was added. The precipitates were collected on Whatman GF/C filters and were washed with 4×2 ml of 5% iced TCA. The radioactivity retained on the filters (representing the tritiated uridine incorporated in the thymocytes) was measured using a liquid scintillation spectrometer."}, "Progesterone receptor": {"target": "T1, Progesterone receptor (Oryctolagus cuniculus, UniProt P06186)", "T1 construct": "from tissue; host or cells: uterus cytosol (105,000 g supernatant) of impuberal female rabbits treated with estradiol", "T1 sequence (P06186 1-930)": "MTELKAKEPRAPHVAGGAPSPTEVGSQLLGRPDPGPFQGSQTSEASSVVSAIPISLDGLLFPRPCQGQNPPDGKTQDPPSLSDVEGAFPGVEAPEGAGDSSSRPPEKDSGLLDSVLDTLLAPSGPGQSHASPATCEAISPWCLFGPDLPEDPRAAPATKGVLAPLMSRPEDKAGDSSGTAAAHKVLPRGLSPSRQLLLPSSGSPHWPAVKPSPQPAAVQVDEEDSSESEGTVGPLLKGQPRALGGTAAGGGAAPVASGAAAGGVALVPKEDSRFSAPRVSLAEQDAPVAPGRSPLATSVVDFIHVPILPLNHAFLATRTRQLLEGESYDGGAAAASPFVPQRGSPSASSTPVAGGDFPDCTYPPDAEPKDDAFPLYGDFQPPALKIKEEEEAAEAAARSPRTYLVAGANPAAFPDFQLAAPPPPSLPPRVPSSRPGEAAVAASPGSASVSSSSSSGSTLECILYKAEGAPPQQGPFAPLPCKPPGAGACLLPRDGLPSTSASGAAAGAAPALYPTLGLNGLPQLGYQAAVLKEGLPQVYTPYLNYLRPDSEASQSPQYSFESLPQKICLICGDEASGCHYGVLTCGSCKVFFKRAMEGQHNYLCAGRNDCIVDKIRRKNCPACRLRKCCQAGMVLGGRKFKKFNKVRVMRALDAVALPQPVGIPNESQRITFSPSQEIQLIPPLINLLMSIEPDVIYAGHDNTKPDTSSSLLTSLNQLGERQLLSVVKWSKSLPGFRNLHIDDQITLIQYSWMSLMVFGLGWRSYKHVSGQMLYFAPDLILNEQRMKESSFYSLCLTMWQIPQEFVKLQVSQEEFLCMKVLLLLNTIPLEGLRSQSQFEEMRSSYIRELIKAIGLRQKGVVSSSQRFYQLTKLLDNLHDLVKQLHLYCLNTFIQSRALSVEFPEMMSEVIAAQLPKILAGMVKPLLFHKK", "test": "relative bond affinity for the progesterone receptor of rabbit's uterus", "assay_type": "binding", "conditions": "for relative bond affinity (RBA), Progesterone 2H: 2 hours incubation at 0° C.; for relative bond affinity (RBA), Progesterone 2H / relative bond affinity (RBA), Progesterone 24H: tritiated R 5020 5 nM, RBA=100 (CH)/(CX), reference cold progesterone; for relative bond affinity (RBA), Progesterone 24H: 24 hours incubation at 0° C.; for antiprogesterone activity: conclusion in words from the receptor binding study", "method": "1) Measurement of the relative bond affinity for the receptors of steroid hormones:\nProgesterone receptor of rabbit's uterus:\nImpuberal female rabbits weighing about 1 kg received a cutaneous application of 25 ug of estradiol and five days after this treatment, the animals were killed and the uteruses were removed, weighed and homogenized at 0° C. using a Potter teflon-flask in a (TS) 10 mM Tris, 0.25M saccharose, HCl pH 7.4 buffer (1 g of tissue per 50 ml of TS). The homogenate was then ultra-centrifuged (105,000 g×90 mn) at 0° C. […] The concentration of bonded tritiated R 5020 (B) was then measured in each incubate by the technique of adsorption with carbon-dextran.\nCalculation of the relative bond affinity:\nThe calculation of the relative bond affinity (RBA) was identical for all receptors. The following two curves were drawn: the percentage of bonded tritiated hormone B/T as a function of the logarithm of the concentration of the cold reference hormone and B/T as a function of the logarithm of the concentration of the cold product under test. The straight line of the equation:\nB max=Percentage of bonded tritiated hormone for an incubation of this tritiated hormone at the concentration (T).\nB min=Percentage of bonded tritiated hormone for an incubation of this tritiated hormone at the concentration (T) in the presence of a great excess of cold hormone (2500×10^-9 M).\nThe intersections of the straight line I50 and the curves allowed the evaluation of the concentrations of the cold reference hormone (CH) and of the cold product under test (CX) which inhibited by 50% the bonding of the tritiated hormone on the receptor. The relative bond affinity (RBA) of the product under test was determined by the equation RBA=100 (CH)/(CX)"}},
  "data": [
    {"smiles": "CN(C)c1ccc([C@H]2C[C@@]3(C)[C@@H](CC[C@@]3(O)/C=C\\COC(=O)CCC(=O)O)[C@@H]3CCC4=CC(=O)CCC4=C32)cc1", "note": "[Example 2, Sodium (Z)-3-[11β-[4-dimethylamino-phenyl]-Δ^4,9-estradien-17β-ol-3-one-17α-yl]-2-propenyl succinate]", "values": [
      {"measurement": "inhibition at 1 µM", "setting": "rat thymocytes; product at 10^-6 M", "value": 68, "unit": "%"},
      {"measurement": "inhibition at 0.1 µM", "setting": "rat thymocytes; product at 10^-7 M", "value": 1, "unit": "%"},
      {"measurement": "inhibition at 0.01 µM", "setting": "rat thymocytes; product at 10^-8 M", "value": 0, "unit": "%"},
      {"measurement": "relative bond affinity (RBA), Progesterone 2H", "setting": "Progesterone receptor", "value": 21},
      {"measurement": "relative bond affinity (RBA), Progesterone 24H", "setting": "Progesterone receptor", "value": 88}
    ]},
    {"smiles": "CC#C[C@]1(OC(=O)CCC(=O)O)CC[C@H]2[C@@H]3CCC4=CC(=O)CCC4=C3[C@@H](c3ccc(N(C)C)cc3)C[C@@]21C", "note": "[Example 5, 11β-[4-dimethylamino-phenyl]-17-(1-propynyl)-Δ^4,9-estradien-3-one-17β-yl acid succinate]", "values": [
      {"measurement": "antiglucocorticoid activity", "setting": "rat thymocytes", "value": "good"},
      {"measurement": "% of inhibition of the incorporation of uridine", "setting": "rat thymocytes; product at 10^-6 M", "value": 135, "unit": "%"},
      {"measurement": "% of inhibition of the incorporation of uridine", "setting": "rat thymocytes; product at 10^-7 M", "value": 100, "unit": "%"},
      {"measurement": "% of inhibition of the incorporation of uridine", "setting": "rat thymocytes; product at 10^-8 M", "value": 28, "unit": "%"},
      {"measurement": "relative bond affinity (RBA), Progesterone 2H", "setting": "Progesterone receptor", "value": 2},
      {"measurement": "relative bond affinity (RBA), Progesterone 24H", "setting": "Progesterone receptor; listed as EX. 5", "value": 8}
    ]},
    {"smiles": "CC#C[C@]1(OC(=O)CCC(=O)O)CC[C@H]2[C@@H]3CCC4=CC(=O)CCC4=C3[C@@H](c3ccc(N(C)C)cc3)C[C@@]21C", "note": "[Example 6, Sodium 11β-[4-dimethylamino-phenyl]17α-(1-propynyl)-Δ^4,9 - estradien-3-one-17β-yl succinate]", "values": [
      {"measurement": "% of inhibition of the incorporation of uridine", "setting": "rat thymocytes; product at 10^-6 M", "value": 78, "unit": "%"},
      {"measurement": "% of inhibition of the incorporation of uridine", "setting": "rat thymocytes; product at 10^-7 M", "value": 27, "unit": "%"},
      {"measurement": "% of inhibition of the incorporation of uridine", "setting": "rat thymocytes; product at 10^-8 M", "value": 0, "unit": "%"},
      {"measurement": "relative bond affinity (RBA), Progesterone 2H", "setting": "Progesterone receptor", "value": 2},
      {"measurement": "relative bond affinity (RBA), Progesterone 24H", "setting": "Progesterone receptor; listed as EX. 6", "value": 6}
    ]},
    {"smiles": "CN(C)c1ccc([C@H]2C[C@@]3(C)[C@@H](CC[C@]3(C#CCl)OC(=O)CCC(=O)O)[C@@H]3CCC4=CC(=O)CCC4=C32)cc1", "note": "[Example 10, Sodium and 21-chloro-11β-[4-dimethylamino-phenyl]-19-nor-17α-Δ^4,9-pregnadien-3-one-20-yn-17β-yl succinate]", "values": [
      {"measurement": "inhibition at 1 µM", "setting": "rat thymocytes; product at 10^-6 M", "value": 78, "unit": "%"},
      {"measurement": "inhibition at 0.1 µM", "setting": "rat thymocytes; product at 10^-7 M", "value": 19, "unit": "%"},
      {"measurement": "inhibition at 0.01 µM", "setting": "rat thymocytes; product at 10^-8 M", "value": 0, "unit": "%"},
      {"measurement": "relative bond affinity (RBA), Progesterone 2H", "setting": "Progesterone receptor", "value": 3},
      {"measurement": "relative bond affinity (RBA), Progesterone 24H", "setting": "Progesterone receptor", "value": 13},
      {"measurement": "antiprogesterone activity", "setting": "Progesterone receptor", "value": "good"}
    ]},
    {"smiles": "CC#C[C@]1(OC(=O)CCC(=O)O)CC[C@H]2[C@@H]3CCC4=CC(=O)CCC4=C3[C@@H](c3ccc(SC)cc3)C[C@@]21C", "note": "[Example 12, Sodium and 11β-[4-methylthio-phenyl]-17α-(1-propynyl)-Δ^4,9 estradien-3-one-17β-yl succinate]", "values": [
      {"measurement": "inhibition at 1 µM", "setting": "rat thymocytes; product at 10^-6 M", "value": 104, "unit": "%"},
      {"measurement": "inhibition at 0.1 µM", "setting": "rat thymocytes; product at 10^-7 M", "value": 62, "unit": "%"},
      {"measurement": "inhibition at 0.01 µM", "setting": "rat thymocytes; product at 10^-8 M", "value": 8, "unit": "%"},
      {"measurement": "antiglucocorticoid activity", "setting": "rat thymocytes", "value": "good"},
      {"measurement": "relative bond affinity (RBA), Progesterone 2H", "setting": "Progesterone receptor", "value": "1,2"},
      {"measurement": "relative bond affinity (RBA), Progesterone 24H", "setting": "Progesterone receptor", "value": "3,6"},
      {"measurement": "antiprogesterone activity", "setting": "Progesterone receptor", "value": "good"}
    ]},
    {"smiles": "CN(C)c1ccc([C@H]2C[C@@]3(C)[C@@H](CC[C@@]3(O)C#CCOC(=O)CCC(=O)O)[C@@H]3CCC4=CC(=O)CCC4=C32)cc1", "note": "[Example 4, Sodium and 3-[11β-[4-dimethylamino-phenyl]-Δ^4,9-estradien-17β-ol-3-one-17α-yl]-2-propynyl succinate]", "values": [
      {"measurement": "inhibition at 1 µM", "setting": "rat thymocytes; product at 10^-6 M", "value": 22, "unit": "%"},
      {"measurement": "inhibition at 0.1 µM", "setting": "rat thymocytes; product at 10^-7 M", "value": 2.5, "unit": "%"},
      {"measurement": "inhibition at 0.01 µM", "setting": "rat thymocytes; product at 10^-8 M", "value": 0, "unit": "%"},
      {"measurement": "relative bond affinity (RBA), Progesterone 2H", "setting": "Progesterone receptor", "value": 14},
      {"measurement": "relative bond affinity (RBA), Progesterone 24H", "setting": "Progesterone receptor", "value": 26}
    ]}
  ]
}
